These results are taken from patent US20260325500A1, “METHODS AND COMPOSITIONS FOR TREATING ACUTE STRESS DISORDER” (BioXcel Therapeutics, Inc., priority 2022, published 2026).

Entries after “also recorded” stand apart in the source; their conditions may differ. Counter-ions that a name gives are not always drawn.

In data set [1] the test system is rat forced swim test model (depressive-like behavior). Put plainly: Forced swim test in dark phase (Example 4). It is filed as in vivo, Sprague Dawley rats. The note with it: i.m. The source says: Animal groups: Male Sprague Dawley (SD) rats (8-10 weeks old) were grouped housed 2 per cage in standard animal cages with facilities for pelleted food and drinking water in polycarbonate bottle with stainless steel sipper tubes. During the experimental period, animals were housed in a single experimental room. Rats were distributed in 7 different experimental groups with 9-12 rats per group as illustrated in Table 8. Animals were distributed to different groups based on body weight data. Each experimental group was also coded so that the experimenter became unaware of the true experimental group at the time FST trial.
Animals were housed in an environment-controlled room at 22±3° C. and relative humidity of 30 to 70 percent. During the study, 12/12 light/dark cycles were maintained. Lights of the acclimatization area were switched off at 06:00 PM. All experiments were carried out at ambient temperature under dark phase of lighting (between 06:00 PM to 06:00 AM). Adequate fresh air supply of 12-15 air changes/hour was maintained in the experimental room. The maximum and minimum temperature and relative humidity in the experimental rooms was recorded once daily. The relative humidity in the experimental room was calculated daily from dry and wet bulb temperature recordings.
Swim 1 was carried out between 18:30 to 21:30.
Swim 2 was carried out between 19:30 to 21:30. Animals were administered test compounds from 18:30 onwards in staggered manner 60 minutes before FST 2.
Forced swim test was carried out in dark phase
On Day 1, animals were subjected to forced swim test training for 15 minutes (Swim 1) and on Day 2, Swim 2 was carried out post treatment.
On day 2 animals were dosed with respective treatment 60 min prior to performing FST.
Forced swim test (Swim 2) was scored manually with no video recording.
Forced swim test (FST), was used to study the depressive-like behavior in rodents. The test was carried out in transparent cylindrical glass containers measuring 46 cm in height and 20 cm in diameter.
There were 2 swim sessions, 24 h apart. The first session, Swim 1 was the pretest/training stage (15 min) and the second session, Swim 2, was the test stage (8 min).
In swim 2, first 1-minute data was excluded from analysis and rest 7 minutes data was considered. In 7 minutes, data, it was divided 5 minutes and 2 minute.
Twenty-four hours after the start of Swim 1, the test swim (Swim 2) was carried out.
Rat was placed in the water-filled cylinder for 8 min (Swim 2).
The duration of time spent immobile, swimming, and climbing was observed by an observer blind to the treatment group.
Immobility period: A rat was judged to be immobile when it remained floating in the water without struggling and was making only those movements necessary to keep its head above water.
Statistical analysis: One Way ANOVA, Dunnet's multiple comparison test was applied with respect to vehicle saline and Tukey's multiple comparison test was applied to compare the data in between the groups using GraphPad Prism version 9 software.

The subject of data set [2] is motor activity (locomotion) and sedation behavior of male Swiss albino mice. Put plainly: Open field test, motor activity (locomotion) and sedation (Example 7). In kind it is in vivo. The settings on record: i.p. On the procedure: Rationale: The spontaneous locomotor activity in terms of total distance traveled is measured in open field test. Comparatively lower distance traveled would indicate either less motor activity or sedation.
Animal groups: Swiss albino male mice (6-7 weeks old; 25-40 g weight) were distributed in 10 different experimental groups with 12 […] per group as illustrated in Table
Study drugs: The test substances (Dexmedetomidine hydrochloride and latrepirdine dihydrochloride hydrate) were dissolved in 0.9% normal saline which served as the vehicle.
Study design and dosing: Mice were brought to the laboratory and allowed to acclimatize to the environment for at least 7 days. The open field test was done in lighting conditions of 40 lux light. The mice were dosed as per the grouping in Table 10. After a post dose interval of 60 minutes, 4 mice from a group were placed in the open field and the movement was tracked for a period of 30 minutes. Once the trial was over the mice were removed from the open field and the arena was cleaned. Following this, next set of 4 mice were placed in the arena and tracked.
Statistical analysis: The distance travelled for a period of 30 minutes was analyzed in bins of 5 minutes and was compared with that of the vehicle group using one-way ANOVA followed by Dunnett's test. All statistical analyses were performed using Graph pad prism software package (Version 7 or Higher) and p value below 0.05 was considered as significant.

The subject of data set [3] is Yohimbine-induced noradrenergic mediated hyperarousal in Wistar rats. Nature of the data set: Elevated plus maze, yohimbine-induced noradrenergic mediated hyperarousal (Example 2). In kind it is in vivo. The settings on record: 10 mg/kg, i.m., 60 min prior; yohimbine 2.5 mg/kg i.p. An excerpt:
Background: Yohimbine is an alpha 2-adrenergic receptor antagonist reported to trigger panic attacks in healthy volunteers and to exacerbate symptoms in patients with panic disorder (Charney et al., 1992 Acta Psychiatr Scand., Vol. 86 (4): 273-282). Peripheral administration of Yohimbine causes noradrenergic mediated hyperarousal in rats as assessed by the EPM paradigm.
Rationale: The drug yohimbine is a natural product used to test a specific pathway, noradrenergic-mediated hyper-arousal. It is well established that yohimbine is an alpha2-adrenergic receptor antagonist and activates the locus coeruleus (LC) and increases noradrenergic signaling (the opposite of alpha2-adrenergic agonists like dexmedetomidine and clonidine). Increased LC activity and noradrenergic signaling makes animals anxious and agitated which can be measured by using the elevated plus maze. In the elevated plus maze, rodents were in the closed arms and explored the open arms depending on their anxiety and agitation (rats and mice normally explore their environments extensively when calm). […] This behavior is correlated to increased level of anxiety caused by noradrenergic mediated hyperarousal.
Animal groups: Male: Wistar rats were used in this study and were randomly divided to different experimental groups (12 animals per group).
Study drugs: Four test drugs with different mechanisms of action linked to agitation were chosen to find drugs that are effective in reducing yohimbine-induced agitation: (1) Fluvoxamine (selective serotonin reuptake inhibitor) (2) Dextromethorphan (modulator of NMDA signals) (3) Diazepam (modulator of gamma-aminobutyric acid (GABA) as a positive control) and (4) Latrepirdine (complex pharmacology).
The test drugs were procured from Sigma or Tocris. dextromethorphan from Sigma Aldrich, Cat No. D9684; latrepirdine from Sigma Aldrich, Cat No. D6196 or Tocris Cat No. 3201 diazepam and fluvoxamine Sigma Aldrich, Cat No. F2802 or Tocris, Cat No. 1033. All these test drugs were formulated in sufficient quantity in 0.9% saline except for fluvoxamine, which was formulated in 30% ethanol in 0.9% saline.
Apparatus: Elevated Plus Maze (EPM) was used (FIG. 1). The maze consisted of two closed arms and two open arms forming a cross, with a square center platform. All visible surfaces were made of black acrylic. Each arm of the maze was placed on a support column above the floor. Antistatic black vinyl curtains used for surrounding the EPM to make an enclosure.
Study design and dosing: Yohimbine was administered by intraperitoneal injection (i.p.) at a dose of 2.5 mg/kg (30 minutes prior to study) to induce agitation and the effects were assessed 30 minutes after yohimbine injection by measuring the number of open arm entries and exploration time in the EPM. The test drugs fluvoxamine, dextromethorphan and latrepirdine dihydrochloride hydrate were administered through intramuscular route and, diazepam through intraperitoneal route into the hindleg thigh muscle of rats (60 minutes prior to study; 30 minutes prior to yohimbine administration). Diazepam was injected 30 minutes intraperitonially prior to the assay i.e. along with yohimbine administration. The study design is illustrated in FIG. 2 and table 5.
After the test drug administration, the rat was placed on the platform opposite a closed arm. The number of entries and the time spent in each arm were recorded during a 5 min period. The animal was considered as entered in arm when it placed its four paws into the arm.
Statistical analysis: Analysis of variance (ANOVA) was performed on the result data. Fisher's PLSD was used for pairwise comparisons and p value≤0.05 was considered significant.

In the case of `Cc1cccc([C@H](C)c2cnc[nH]2)c1C` [dexmedetomidine hydrochloride], in data set [1] (1 μg/kg, versus vehicle saline), the climbing time result is “significantly increased” and the “increase in swimming time” value is ~ 1.6%. For the same compound, in data set [1] (5 μg/kg), the swimming time result is recorded as “significantly increased”. In data set [1] (1 and 5 μg/kg, versus vehicle saline), the immobility time result was “significantly decreased”. The distance traveled result in data set [2] (4 μg/kg, 10 μg/kg and 20 μg/kg) is listed as “did not show any significant reduction in distance traveled”. Also, the distance traveled entry in data set [2] (30 μg/kg) was “significant reduction in distance traveled”.

For the compound `COc1ccc2c(c1)[C@]13CCCC[C@@H]1[C@H](C2)N(C)CC3` [dextromethorphan], the “reduction of noradrenergic mediated hyperarousal (open arm entries and time spent)” value in data set [3] is “ineffective; also recorded: no effect”.

Consider `COCCCC/C(=N\OCCN)c1ccc(C(F)(F)F)cc1` [fluvoxamine], for which the “reduction of noradrenergic mediated hyperarousal (open arm entries and time spent)” value in data set [3] is given as “ineffective; also recorded: no effect”.
